Assay results reported in patent publication EP4778921A1, “SALT FORM AND CRYSTAL FORM OF NITROGEN-CONTAINING HETEROCYCLIC DERIVATIVE INHIBITOR, AND PREPARATION METHOD THEREFOR AND USE THEREOF” (Shanghai Hansoh Biomedical Co., Ltd., priority 2023, dated 2025).

How the values were obtained:
[1] = Solubility experiments in different media, crystal forms of salts; format: physicochemical; parameters: thermodynamic solubility FaSSIF / thermodynamic solubility FaSSGF / thermodynamic solubility FeSSIF: unit not given here; conditions: about 2 mg suspended for 24 hours, 37°C, HPLC, external standard method
Excerpt: 4.1 Experimental objective: The solubility of the crystal form A of phosphate, crystal form A of hydrochloride, crystal form A of sulphate, crystal form A of citrate, crystal form A of oxalate, crystal form A of maleate and crystal form A of salicylate in media such as artificial simulated gastric fluid (FaSSGF), fasted-state artificial simulated intestinal fluid (FaSSIF), and fed-state artificial simulated intestinal fluid (FeSSIF) was compared to provide a basis for the evaluation of the potential of the crystal forms of salts being manufactured as a drug. […]

[2] = Hygroscopicity experiment (crystal forms of salts and crystal form A of free base); format: physicochemical
Excerpt: • 2.1 Experimental objective: The hygroscopicity of different crystal forms of salts of the compound was investigated under various relative humidity conditions to provide a basis for screening and storage of the crystal forms of salts of the compound. • 2.2 Experimental scheme: The crystal forms of salts of the compound were placed in saturated water vapor at different relative humidities to reach a dynamic equilibrium between the compound and the water vapor.
3.1 Experimental objective: The hygroscopicity of crystal form A of free base of the compound was investigated under various relative humidity conditions to provide a basis for screening and storage of the crystal forms of the compound.
3.2 Experimental scheme: The crystal form A of free base of the compound was placed in saturated water vapor at different relative humidities to reach a dynamic equilibrium between the compound and the water vapor. The percentage weight gain of the compound due to moisture absorption was calculated after the equilibrium.

[3] = Solid stability experiment of crystal form A of phosphate (5, 10, 20 and 30 days); format: physicochemical; conditions: 60°C (GW, sealed), 50°C/75% RH (JS, unsealed), room temperature/92.5% RH (GS, unsealed)
Description: • 5.1 Experimental objective: To investigate and compare the stability of the crystal form A of phosphate under the three conditions of a high temperature of 60°C (GW, sealed), 50°C/75% RH (JS, unsealed), and room temperature/92.5% RH (GS, unsealed) and provide a basis for the screening of the crystal forms of salts and the storage of the salts of the compound. • 5.2 Experimental scheme: About 2 mg of crystal form A of phosphate was weighed into 2 mL dry and clean glass vials, respectively. The vials were respectively placed under the conditions of 60°C (GW, sealed), 50°C/75% RH (JS, unsealed), and room temperature/92.5% RH (GS, unsealed) for 5, 10, 20 and 30 days. […] Therefore, the crystal form can well meet the requirements of subsequent long-term storage and formulation processes.

[4] = test system: Ba/F3 EGFR L858R/T790M/C797S; test: Cell proliferation inhibition experiment (Cell Titer-Glo); format: cell-based; conditions: Mus musculus, 72 hours, read-out: Ba/F3 EGFR L858R_T790M_C797S IC50
Description: (§1) Experimental objective: The objective of this test example is to test the inhibitory activity of compounds on the proliferation of different EGFR C797S drug-resistant mutant cell lines Ba/F3 EGFR Del19/T790M/C797S, Ba/F3 EGFR L858R/T790M/C797S, and Ba/F3 EGFR Del19/C797S. Experimental instruments: Centrifuge (Eppendorf 5810R); Microplate reader (BioTek Synergy H1) Pipette (Eppendorf or Rainin); Carbon dioxide incubator (Thermo 311) Cell counter (Life Countess II) Experimental reagents and consumables: • Ba/F3 EGFR Del19/T790M/C797S cells were purchased from KYinno Biotechnology Co., Ltd.; • Ba/F3 EGFR Del19/C797S cells were purchased from CoBioer Biosciences Co., Ltd.; • Ba/F3 EGFR L858R/T790M/C797S cells were purchased from CoBioer Biosciences Co., Ltd.; • Cell Titer-Glo was purchased from Promega, with a catalogue number of G7573; • RPMI 1640 was purchased from Gibco, with a catalogue number of 22400089; • FBS was purchased from Gibco, with a catalogue number of 10091148; • cell culture plates were purchased from Corning, with a catalogue number of 3610. Experimental methods: The inhibitory activity of the compound on the proliferation of different EGFR C797S drug-resistant mutant cell lines was detected using the Cell Titer-Glo method. The different cell lines were cultured in RPMI 1640 complete culture medium containing 10% FBS under conditions of 37°C and 5% CO2, the cells were collected by centrifugation when growing to a certain density, and adjusted to appropriate cell density after counting, the cells were spread on a white 96-well plate at 90 µL/well, and cultured in a 37°C, 5% CO2 incubator overnight, prepared compound solutions at different concentrations were added at 10 µL/well, corresponding solvent controls were set, and all wells were cultured in a 37°C, 5% CO2 incubator for 72 hours, 50 µL of CellTiter-Glo solution was added to each well, shook and mixed evenly, and incubated in the dark for 10 minutes, and a BioTek Synergy H1 microplate reader was used for reading. Experimental data processing method: The luminescence signal value was used to calculate the inhibition rate. Graphpad Prism software was used to fit the concentration and inhibition rate to a nonlinear regression curve, so as to obtain the IC50 value, as shown in the Table below for details.

Ba/F3 EGFR Del19/C797S = test: as above; format: cell-based; conditions: Mus musculus, 72 hours, read-out: Ba/F3 EGFR Dell9/C797S IC50
Description: as §1

[5] = test system: Ba/F3 EGFR Del19/T790M/C797S; test: as above; format: cell-based; conditions: Mus musculus, 72 hours, read-out: Ba/F3 EGFR Del19_T790M_C797S IC50
Description: as §1

[6] = Rat pharmacokinetic evaluation test; format: in vivo; conditions: male, po, SD rats, plasma, p.o. 5 mg/kg
Description: 1. Study objective: SD rats were used as test animals to study the pharmacokinetic behaviour of the compounds of the present invention in rats (plasma) after oral administration at a dose of 5 mg/kg. 2. Experimental scheme: 2.1 Experimental drugs: The example compounds of the present invention, made in house. 2.2 Experimental animals: 3 SD rats/group, male, from Shanghai Jiesijie Experimental Animal Co., Ltd., animal production license number (SCXK (Shanghai) 2013-0006 N0.311620400001794). 2.3 Preparation formulation: • Formulation of drug for oral administration: 20% solutol HS15 in 0.5% MC (methylcellulose) • 20 g of a Solutol HS15 solid and 0.5 g of a MC solid powder were weighed and dissolved in 80 mL of purified water, and the mixture was vortexed, mixed until uniform, and subjected to ultrasound treatment to obtain a clear solution of 20% solutol HS15 in 0.5% MC. The example compound was weighed into a 20 mL glass vial, the solution was added thereto and the mixture was subjected to ultrasound treatment for 10 minutes to obtain a clear solution at a concentration of 0.5 mg/mL. 2.4 Administration: 3 male SD rats were administered p.o. respectively after the rats were fasted overnight; and the p.o. dose was 5 mg/kg and the administration volume was 10 mL/kg. 2.5 Sample collection: Blood collection: Before and after administration to rats, 0.2 mL of blood was collected from the jugular vein at 0.25, 0.5, 1, 2, 4, 6, 8 and 24 h, and placed in an EDTA-K2 anticoagulation tube, which was centrifuged at 6000 rpm at 4°C for 6 min to separate plasma which was stored at -80°C; and the animals were fed 4 h after administration. 2.6 Sample treatment: • 1) Acetonitrile (160 µL) was added to plasma sample (40 µL) for precipitation, and the mixture was centrifuged at 3500 × g for 5-20 min. • 2) The treated supernatant solution was taken and subjected to LC/MS/MS to analyse the concentrations of the test compound. LC/MS/MS analysis instrument: AB Sciex API 4000 Qtrap. 2.7 Liquid phase analysis: • Liquid phase conditions: Shimadzu LC-20AD pump • Chromatographic column: Agilent ZORBAX XDB-C18 (50 × 2.1 mm, 3.5 µm), mobile phase: solution A: 0.1% formic acid in water, solution B: acetonitrile • Flow rate: 0.4 mL/min • Elution time: 0-4.0 min, with eluents as follows:
3. Experimental results and analysis: The main pharmacokinetic parameters were calculated using WinNonlin 6.1.

thermodynamic solubility FaSSGF ([1]; FaSSGF (artificial simulated gastric fluid)) | thermodynamic solubility FaSSIF ([1]; FaSSIF (fasted-state artificial simulated intestinal fluid)) | solubility thermodynamic at 24 h ([1]; thermodynamic from solid, FeSSIF (fed-state artificial simulated intestinal fluid)) | weight gain after moisture absorption ([2]; RH 80%) | hygroscopicity ([2]; RH 80%, result in words) | crystal form transformation (XRPD pattern) ([2]; after 1 cycle of moisture absorption and desorption, 0-95% relative humidity) | stability (impurity increase) [3] | IC50 [4] | IC50 (Ba/F3 EGFR Del19/C797S) | IC50 [5] | AUC(0-t) [6] | Cmax [6] | half-life [6] | SMILES
0.010 | 0.203 | 1200 µg/mL | 0.533% | weak hygroscopicity | no crystal form transformation occurred | relatively stable |  |  |  |  |  |  | CC(C)c1c(F)cc(N2C[C@H](N(C)S(C)(=O)=O)[C@H]2C)c2cnc(Nc3ccnc(-c4cn(C)nc4Cl)n3)cc12 [crystal form A of phosphate, N-((2R,3S)-1-(3-((2-(3-chloro-1-methyl-1H-pyrazol-4-yl)pyrimidin-4-yl)amino)-6-fluoro-5-isopropylisoquinolin-8-yl)-2-methylazetidin-3-yl)-N-methylmethanesulphonamide]
 |  |  |  |  |  |  | 8.8 nM | 2.6 nM |  |  |  |  | CC(C)c1c(F)cc(N2C[C@H](NS(C)(=O)=O)[C@H]2C)c2cnc(Nc3ccnc(-c4cn(C)nc4Cl)n3)cc12 [Example 14, N-((2R,3S)-1-(3-((2-(3-chloro-1-methyl-1H-pyrazol-4-yl)pyrimidin-4-yl)amino)-6-fluoro-5-isopropylisoquinolin-8-yl)-2-methylazetidin-3-yl)methanesulphonamide]
 |  |  |  |  |  |  | 15 nM | 6.2 nM | 4.5 nM | 1770 ng·h/mL | 142 ng/mL | 3.9 h | CC(C)c1c(F)cc(N2C[C@H](N(C)S(C)(=O)=O)[C@H]2C)c2cnc(Nc3ccnc(-c4cn(C)nc4Cl)n3)cc12 [Example 2, N-((2R,3S)-1-(3-((2-(3-chloro-1-methyl-1H-pyrazol-4-yl)pyrimidin-4-yl)amino)-6-fluoro-5-isopropylisoquinolin-8-yl)-2-methylazetidin-3-yl)-N-methylmethanesulphonamide]
 |  |  |  |  |  |  | 14 nM | 11 nM | 7.1 nM | 2100 ng·h/mL | 178 ng/mL | 2.3 h | CC(C)c1c(F)cc(N2C[C@H](CS(C)(=O)=O)[C@H]2C)c2cnc(Nc3ccnc(-c4cn(C)nc4Cl)n3)cc12 [Example 1, N-(2-(3-chloro-1-methyl-1H-pyrazol-4-yl)pyrimidin-4-yl)-6-fluoro-5-isopropyl-8-((2R,3S)-2-methyl-3-((methanesulphonyl)methyl)azetidin-1-yl)isoquinolin-3-amine]
 |  |  |  |  |  |  |  | 7.8 nM | 4.5 nM | 2000 ng·h/mL | 157 ng/mL | 3.9 h | Cc1nn(C)cc1-c1nccc(Nc2cc3c(C(C)C)c(F)cc(N4C[C@H](N(C)S(C)(=O)=O)[C@H]4C)c3cn2)n1 [Example 5, N-((2R,3S)-1-(3-((2-(1,3-dimethyl-1H-pyrazol-4-yl)pyrimidin-4-yl)amino)-6-fluoro-5-isopropylisoquinolin-8-yl)-2-methylazetidin-3-yl)-N-methylmethanesulphonamide]
